Article PMC12420824, “Discovery of a selective alpha-kinase 1 inhibitor for the rare genetic disease ROSAH syndrome” (Nature Communications, 2025)
“And” between values parts separate entries of the source, which are not always exact repeats. Identical values can stand only once. Like-named read-outs stand apart in the source and are kept apart here.

What was measured:
TTBK2 = TTBK2 (Homo sapiens, UniProt Q6IQ55); test: HotSpot kinase assay; details: read-out: % Enzyme Activity (relative to DMSO control), 10 uM
Description: (§1) Additionally, a 10-dose dilution series of staurosporine and other enzyme-appropriate compounds were included as positive control inhibitors.

PLK2 = PLK2 (Homo sapiens, UniProt Q9NYY3); test: HotSpot kinase assay; details: read-out: % Enzyme Activity (relative to DMSO control), 10 uM
PRKX = PRKX (Homo sapiens, UniProt P51817); test: HotSpot kinase assay; details: read-out: % Enzyme Activity (relative to DMSO control), 10 uM
Description: as §1

MAK = MAK (Homo sapiens, UniProt P20794); test: HotSpot kinase assay; details: read-out: % Enzyme Activity (relative to DMSO control), 10 uM
Description: as §1

MEKK6 = MEKK6 (Homo sapiens, UniProt O95382); test: HotSpot kinase assay; details: read-out: % Enzyme Activity (relative to DMSO control), 10 uM
Description: as §1

CDK1/cyclin E = CDK1/cyclin E (Homo sapiens, UniProt P06493); test: HotSpot kinase assay; details: read-out: % Enzyme Activity (relative to DMSO control), 10 uM
EPHB1 = EPHB1 (Homo sapiens, UniProt P54762); test: HotSpot kinase assay; details: read-out: % Enzyme Activity (relative to DMSO control), 10 uM
Description: as §1

KDR/VEGFR2 = KDR/VEGFR2 (Homo sapiens, UniProt P35968); test: HotSpot kinase assay; details: read-out: % Enzyme Activity (relative to DMSO control), 10 uM
STK38L/NDR2 = STK38L/NDR2 (Homo sapiens, UniProt Q9Y2H1); test: HotSpot kinase assay; details: read-out: % Enzyme Activity (relative to DMSO control), 10 uM
Description: as §1

AXL = AXL (Homo sapiens, UniProt P30530); test: HotSpot kinase assay; details: read-out: % Enzyme Activity (relative to DMSO control), 10 uM
Description: as §1

MEK1 = MEK1 (Homo sapiens, UniProt Q02750); test: HotSpot kinase assay; details: read-out: % Enzyme Activity (relative to DMSO control), 10 uM
Description: as §1

SGK2 = SGK2 (Homo sapiens, UniProt Q9HBY8); test: HotSpot kinase assay; details: read-out: % Enzyme Activity (relative to DMSO control), 10 uM
Description: as §1

STK16 = STK16 (Homo sapiens, UniProt O75716); test: biochemical; details: read-out: % Enzyme Activity (relative to DMSO control), 10 uM
Description: as §1

GCK/MAP4K2 = GCK/MAP4K2 (Homo sapiens, UniProt Q12851); test: HotSpot kinase assay; details: read-out: % Enzyme Activity (relative to DMSO control), 10 uM
TNIK = TNIK (Homo sapiens, UniProt Q9UKE5); test: HotSpot kinase assay; details: read-out: % Enzyme Activity (relative to DMSO control), 10 uM
MARK4 = MARK4 (Homo sapiens, UniProt Q96L34); test: HotSpot kinase assay; details: read-out: % Enzyme Activity (relative to DMSO control), 10 uM
Description: as §1

KSR2 = KSR2 (Homo sapiens, UniProt Q6VAB6); test: HotSpot kinase assay; details: read-out: % Enzyme Activity (relative to DMSO control), 10 uM
Description: as §1

BMX/ETK = BMX/ETK (Homo sapiens, UniProt P51813); test: HotSpot kinase assay; details: read-out: % Enzyme Activity (relative to DMSO control), 10 uM
DAPK1 = DAPK1 (Homo sapiens, UniProt P53355); test: HotSpot kinase assay; details: read-out: % Enzyme Activity (relative to DMSO control), 10 uM
Description: as §1

THP-1 macrophages = test: cells; details: Homo sapiens, THP-1, 4 h
CAMKK1 = CAMKK1 (Homo sapiens, UniProt Q8N5S9); test: HotSpot kinase assay; details: read-out: % Enzyme Activity (relative to DMSO control), 10 uM
Description: as §1

c-Kit = c-Kit (Homo sapiens, UniProt P10721); test: HotSpot kinase assay; details: read-out: % Enzyme Activity (relative to DMSO control), 10 uM
Description: as §1

WNK3 = WNK3 (Homo sapiens, UniProt Q9BYP7); test: HotSpot kinase assay; details: read-out: % Enzyme Activity (relative to DMSO control), 10 uM
PKCb1 = PKCb1 (Homo sapiens, UniProt P05771); test: HotSpot kinase assay; details: read-out: % Enzyme Activity (relative to DMSO control), 10 uM
Description: as §1

PKCb2 = PKCb2 (Homo sapiens, UniProt P05771); test: HotSpot kinase assay; details: read-out: % Enzyme Activity (relative to DMSO control), 10 uM
Description: as §1

CDK7/cyclin H = CDK7/cyclin H (Homo sapiens, UniProt P50613); test: HotSpot kinase assay; details: read-out: % Enzyme Activity (relative to DMSO control), 10 uM
Description: as §1

CK1g2 = CK1g2 (Homo sapiens, UniProt P78368); test: HotSpot kinase assay; details: read-out: % Enzyme Activity (relative to DMSO control), 10 uM
[1] = system: NF-κB reporter HEK-293 cells overexpressing ALPK1; test: NF-κB luciferase reporter
AMPK(A2/B2/G3) = AMPK(A2/B2/G3) (Homo sapiens, UniProt P54646); test: HotSpot kinase assay; details: read-out: % Enzyme Activity (relative to DMSO control), 10 uM
Description: as §1

MLCK2/MYLK2 = MLCK2/MYLK2 (Homo sapiens, UniProt Q9H1R3); test: HotSpot kinase assay; details: read-out: % Enzyme Activity (relative to DMSO control), 10 uM
Description: as §1

STK21/CIT = STK21/CIT (Homo sapiens, UniProt O14578); test: HotSpot kinase assay; details: read-out: % Enzyme Activity (relative to DMSO control), 10 uM
Description: as §1

TRKB = TRKB (Homo sapiens, UniProt Q16620); test: HotSpot kinase assay; details: read-out: % Enzyme Activity (relative to DMSO control), 10 uM
Haspin = Haspin (Homo sapiens, UniProt Q8TF76); test: HotSpot kinase assay; details: read-out: % Enzyme Activity (relative to DMSO control), 10 uM
LATS2 = LATS2 (Homo sapiens, UniProt Q9NRM7); test: HotSpot kinase assay; details: read-out: % Enzyme Activity (relative to DMSO control), 10 uM
Description: as §1

TAK1 = TAK1 (Homo sapiens, UniProt O43318); test: HotSpot kinase assay; details: read-out: % Enzyme Activity (relative to DMSO control), 10 uM
Description: as §1

BRK = BRK (Homo sapiens, UniProt Q13882); test: HotSpot kinase assay; details: read-out: % Enzyme Activity (relative to DMSO control), 10 uM
Description: as §1

BRSK1 = BRSK1 (Homo sapiens, UniProt Q8TDC3); test: HotSpot kinase assay; details: read-out: % Enzyme Activity (relative to DMSO control), 10 uM
Description: as §1

IR = IR (Homo sapiens, UniProt P06213); test: HotSpot kinase assay; details: read-out: % Enzyme Activity (relative to DMSO control), 10 uM
Description: as §1

Sequence of MARK4 (Q96L34 whole entry): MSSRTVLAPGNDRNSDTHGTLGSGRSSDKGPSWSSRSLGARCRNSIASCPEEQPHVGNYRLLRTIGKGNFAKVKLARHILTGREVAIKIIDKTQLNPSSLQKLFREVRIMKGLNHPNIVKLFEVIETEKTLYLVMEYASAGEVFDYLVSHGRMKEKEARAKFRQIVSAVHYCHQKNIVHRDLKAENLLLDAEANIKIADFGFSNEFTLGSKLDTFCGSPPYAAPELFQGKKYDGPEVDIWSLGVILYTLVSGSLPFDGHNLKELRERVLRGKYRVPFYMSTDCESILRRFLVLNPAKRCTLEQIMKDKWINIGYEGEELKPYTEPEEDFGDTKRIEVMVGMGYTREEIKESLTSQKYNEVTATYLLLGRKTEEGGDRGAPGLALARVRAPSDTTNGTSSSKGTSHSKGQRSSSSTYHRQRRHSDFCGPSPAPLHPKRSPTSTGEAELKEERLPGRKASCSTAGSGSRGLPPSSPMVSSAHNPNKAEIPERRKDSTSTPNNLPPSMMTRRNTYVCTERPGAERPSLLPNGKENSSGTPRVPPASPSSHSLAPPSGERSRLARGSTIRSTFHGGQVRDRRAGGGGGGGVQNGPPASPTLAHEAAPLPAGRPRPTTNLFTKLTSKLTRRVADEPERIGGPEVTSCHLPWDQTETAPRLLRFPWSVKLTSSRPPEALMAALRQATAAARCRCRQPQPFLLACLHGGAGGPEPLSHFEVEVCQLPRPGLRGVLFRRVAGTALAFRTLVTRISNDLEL
Sequence of PRKX (P51817 whole entry): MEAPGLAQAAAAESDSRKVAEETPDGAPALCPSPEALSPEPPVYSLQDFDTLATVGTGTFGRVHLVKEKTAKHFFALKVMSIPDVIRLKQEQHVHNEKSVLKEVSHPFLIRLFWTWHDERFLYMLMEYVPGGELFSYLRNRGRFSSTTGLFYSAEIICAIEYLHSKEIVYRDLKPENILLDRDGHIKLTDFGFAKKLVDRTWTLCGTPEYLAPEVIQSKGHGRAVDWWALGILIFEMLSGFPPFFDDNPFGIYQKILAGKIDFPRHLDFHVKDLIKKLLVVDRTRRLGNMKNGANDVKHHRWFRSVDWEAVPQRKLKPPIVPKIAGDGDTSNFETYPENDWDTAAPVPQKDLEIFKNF
Sequence of TRKB (Q16620 32-822): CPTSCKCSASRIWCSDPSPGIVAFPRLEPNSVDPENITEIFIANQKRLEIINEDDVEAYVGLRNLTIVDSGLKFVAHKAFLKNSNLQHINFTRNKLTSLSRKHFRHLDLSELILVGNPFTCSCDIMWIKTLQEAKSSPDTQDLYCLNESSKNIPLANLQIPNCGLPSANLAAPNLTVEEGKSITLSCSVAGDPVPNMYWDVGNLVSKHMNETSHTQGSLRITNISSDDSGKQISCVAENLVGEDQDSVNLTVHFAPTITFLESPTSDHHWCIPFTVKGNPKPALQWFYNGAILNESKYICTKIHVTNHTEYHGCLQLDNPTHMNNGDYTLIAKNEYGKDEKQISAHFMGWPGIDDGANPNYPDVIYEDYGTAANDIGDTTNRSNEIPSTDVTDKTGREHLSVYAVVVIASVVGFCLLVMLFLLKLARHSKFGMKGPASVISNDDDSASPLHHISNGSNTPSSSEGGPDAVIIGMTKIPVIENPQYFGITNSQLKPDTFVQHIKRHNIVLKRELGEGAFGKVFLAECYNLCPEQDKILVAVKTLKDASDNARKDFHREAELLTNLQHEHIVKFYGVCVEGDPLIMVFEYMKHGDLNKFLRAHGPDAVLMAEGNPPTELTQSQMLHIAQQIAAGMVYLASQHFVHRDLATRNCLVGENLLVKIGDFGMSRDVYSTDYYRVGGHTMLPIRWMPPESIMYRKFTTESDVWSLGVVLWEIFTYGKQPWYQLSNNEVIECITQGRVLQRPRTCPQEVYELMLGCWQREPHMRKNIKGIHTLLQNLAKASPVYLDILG
Sequence of MAK (P20794 whole entry): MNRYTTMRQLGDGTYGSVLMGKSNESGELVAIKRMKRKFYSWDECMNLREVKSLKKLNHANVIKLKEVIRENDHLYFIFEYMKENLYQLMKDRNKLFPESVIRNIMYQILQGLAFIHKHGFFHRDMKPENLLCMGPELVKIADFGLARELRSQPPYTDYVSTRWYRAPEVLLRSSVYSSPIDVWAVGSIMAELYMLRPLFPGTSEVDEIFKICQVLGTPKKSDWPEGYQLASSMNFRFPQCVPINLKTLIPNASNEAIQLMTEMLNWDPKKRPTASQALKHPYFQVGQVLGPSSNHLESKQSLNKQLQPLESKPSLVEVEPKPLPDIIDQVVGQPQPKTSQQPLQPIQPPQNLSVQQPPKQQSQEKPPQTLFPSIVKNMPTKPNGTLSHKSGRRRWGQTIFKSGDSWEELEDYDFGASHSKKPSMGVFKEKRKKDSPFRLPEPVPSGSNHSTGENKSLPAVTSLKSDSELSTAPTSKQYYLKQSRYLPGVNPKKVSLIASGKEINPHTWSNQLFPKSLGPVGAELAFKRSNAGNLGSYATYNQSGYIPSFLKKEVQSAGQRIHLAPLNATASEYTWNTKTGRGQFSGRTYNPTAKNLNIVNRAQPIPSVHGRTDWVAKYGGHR
Sequence of STK21/CIT (O14578 whole entry): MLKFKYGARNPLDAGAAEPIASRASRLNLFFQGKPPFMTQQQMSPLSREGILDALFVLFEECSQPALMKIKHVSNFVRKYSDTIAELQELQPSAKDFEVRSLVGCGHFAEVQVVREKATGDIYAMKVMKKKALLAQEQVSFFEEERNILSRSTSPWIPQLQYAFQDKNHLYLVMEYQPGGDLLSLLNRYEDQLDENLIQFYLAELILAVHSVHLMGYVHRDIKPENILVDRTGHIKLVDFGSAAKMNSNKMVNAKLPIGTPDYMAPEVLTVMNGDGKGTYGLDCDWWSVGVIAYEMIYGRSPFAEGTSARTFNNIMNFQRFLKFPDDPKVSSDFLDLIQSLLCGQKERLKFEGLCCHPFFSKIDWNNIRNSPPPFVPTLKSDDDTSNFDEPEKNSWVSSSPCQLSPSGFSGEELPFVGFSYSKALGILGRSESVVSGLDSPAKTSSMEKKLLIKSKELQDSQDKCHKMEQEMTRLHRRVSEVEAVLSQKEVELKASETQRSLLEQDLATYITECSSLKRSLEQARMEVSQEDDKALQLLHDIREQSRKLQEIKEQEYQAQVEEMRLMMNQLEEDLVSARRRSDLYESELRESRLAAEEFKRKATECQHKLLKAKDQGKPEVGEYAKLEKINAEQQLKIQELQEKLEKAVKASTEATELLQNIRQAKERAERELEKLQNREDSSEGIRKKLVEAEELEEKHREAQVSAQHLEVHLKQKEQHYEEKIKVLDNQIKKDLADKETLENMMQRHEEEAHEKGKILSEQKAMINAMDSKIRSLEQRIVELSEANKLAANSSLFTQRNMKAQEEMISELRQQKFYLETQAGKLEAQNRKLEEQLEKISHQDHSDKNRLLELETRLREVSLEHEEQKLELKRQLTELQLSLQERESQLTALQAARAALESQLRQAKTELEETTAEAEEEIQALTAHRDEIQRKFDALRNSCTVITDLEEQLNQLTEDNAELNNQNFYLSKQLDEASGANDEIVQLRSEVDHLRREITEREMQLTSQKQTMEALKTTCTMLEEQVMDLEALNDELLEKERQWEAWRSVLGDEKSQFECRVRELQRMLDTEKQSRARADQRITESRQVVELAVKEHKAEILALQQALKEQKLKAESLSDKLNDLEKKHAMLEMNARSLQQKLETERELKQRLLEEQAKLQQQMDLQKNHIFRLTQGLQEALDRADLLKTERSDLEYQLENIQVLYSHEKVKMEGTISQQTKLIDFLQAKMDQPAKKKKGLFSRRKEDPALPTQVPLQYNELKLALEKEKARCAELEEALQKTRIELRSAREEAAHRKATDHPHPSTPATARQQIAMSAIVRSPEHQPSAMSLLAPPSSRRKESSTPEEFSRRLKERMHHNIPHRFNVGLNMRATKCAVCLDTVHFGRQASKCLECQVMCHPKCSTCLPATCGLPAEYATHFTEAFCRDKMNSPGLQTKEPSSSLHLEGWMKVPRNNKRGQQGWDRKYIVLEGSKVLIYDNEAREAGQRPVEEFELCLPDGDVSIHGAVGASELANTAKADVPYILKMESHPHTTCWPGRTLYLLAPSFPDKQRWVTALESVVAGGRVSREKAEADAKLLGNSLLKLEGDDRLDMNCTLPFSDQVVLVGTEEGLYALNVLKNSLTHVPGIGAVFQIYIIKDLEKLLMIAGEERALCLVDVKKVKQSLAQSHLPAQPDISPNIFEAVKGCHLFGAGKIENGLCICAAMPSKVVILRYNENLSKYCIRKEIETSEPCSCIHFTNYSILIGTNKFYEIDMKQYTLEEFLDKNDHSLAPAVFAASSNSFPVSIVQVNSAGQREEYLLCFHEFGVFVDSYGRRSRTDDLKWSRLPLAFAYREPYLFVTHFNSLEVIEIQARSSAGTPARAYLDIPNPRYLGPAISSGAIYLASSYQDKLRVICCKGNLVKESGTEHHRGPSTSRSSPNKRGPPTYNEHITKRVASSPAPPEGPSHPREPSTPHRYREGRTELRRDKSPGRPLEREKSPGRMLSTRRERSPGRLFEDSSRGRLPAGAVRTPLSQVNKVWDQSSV
Sequence of STK38L/NDR2 (Q9Y2H1 whole entry): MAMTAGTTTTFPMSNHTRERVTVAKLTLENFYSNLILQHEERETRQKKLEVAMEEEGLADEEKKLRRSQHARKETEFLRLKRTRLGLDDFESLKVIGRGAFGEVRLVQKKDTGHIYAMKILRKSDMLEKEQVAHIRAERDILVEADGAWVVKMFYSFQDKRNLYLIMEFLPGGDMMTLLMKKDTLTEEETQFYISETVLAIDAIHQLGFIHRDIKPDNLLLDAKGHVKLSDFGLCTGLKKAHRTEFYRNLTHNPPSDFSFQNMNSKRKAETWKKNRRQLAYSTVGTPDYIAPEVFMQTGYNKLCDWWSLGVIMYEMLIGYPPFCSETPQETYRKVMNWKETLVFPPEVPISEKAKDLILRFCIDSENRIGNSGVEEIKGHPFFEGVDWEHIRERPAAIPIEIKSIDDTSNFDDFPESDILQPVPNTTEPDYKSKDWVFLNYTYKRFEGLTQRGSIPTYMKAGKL

C#C[C@@](C)(c1ccc(Cl)cc1)c1csc(NC(=O)c2c(F)cc(N3CCNCC3)cc2F)n1 (stereo in doubt) [DF-003]
remaining activity at 10 µM (TTBK2): 98.2% | remaining activity at 10 µM (PLK2): 109% | remaining activity at 10 µM (PRKX): 87.4% | remaining activity at 10 µM (MAK): 100% | remaining activity at 10 µM (MEKK6): 73.4% | remaining activity at 10 µM (CDK1/cyclin E): 83.6% | remaining activity at 10 µM (EPHB1): 80.8% | remaining activity at 10 µM (KDR/VEGFR2): 76% | remaining activity at 10 µM (STK38L/NDR2): 90.6% | remaining activity at 10 µM (AXL): 47.9% | remaining activity at 10 µM (MEK1): 102% | remaining activity at 10 µM (SGK2): 77.6% | remaining activity at 10 µM (STK16): 109% | remaining activity at 10 µM (GCK/MAP4K2): 84% | remaining activity at 10 µM (TNIK): 75.5% | remaining activity at 10 µM (MARK4): 110% | remaining activity at 10 µM (KSR2): 79.5% | remaining activity at 10 µM (BMX/ETK): 87.5% | remaining activity at 10 µM (DAPK1): 62.8% | IC50 (THP-1 macrophages; read-out: IC50, DF-006-induced CXCL8 upregulation): 6.5 nM | IC50 (THP-1 macrophages; read-out: IC50, DF-006-induced TNF upregulation): 8 nM | remaining activity at 10 µM (CAMKK1): 92.8% | remaining activity at 10 µM (c-Kit): 67.6% | remaining activity at 10 µM (WNK3): 95.4% | remaining activity at 10 µM (PKCb1): 91.2% | remaining activity at 10 µM (PKCb2): 85.2% | remaining activity at 10 µM (CDK7/cyclin H): 102% | remaining activity at 10 µM (CK1g2): 121% | Luciferase signal ([1]; OE ALPK1, DF-003 3.174 nM): 1.097 and 1.020 and 1.022 | Luciferase signal ([1]; OE ALPK1, DF-003 10.029 nM): 0.986 and 1.052 and 0.781 | Luciferase signal ([1]; OE ALPK1, DF-003 31.691 nM): 1.122 and 1.009 and 1.070 | Luciferase signal ([1]; OE ALPK1, DF-003 100.144 nM): 1.037 and 1.150 and 1.192 | Luciferase signal ([1]; OE ALPK1, DF-003 316.456 nM): 1.532 and 0.863 and 1.106 | Luciferase signal ([1]; OE ALPK1, DF-003 1000.000 nM): 1.282 and 1.245 and 1.248 | Luciferase signal ([1]; OE ALPK1, DF-003 3160.000 nM): 0.913 and 0.816 and 0.878 | Luciferase signal ([1]; OE ALPK1, DF-003 10000.000 nM): 1.096 and 0.857 and 1.177 | remaining activity at 10 µM (AMPK(A2/B2/G3)): 85% | remaining activity at 10 µM (MLCK2/MYLK2): 81.3% | remaining activity at 10 µM (STK21/CIT): 108% | remaining activity at 10 µM (TRKB): 74.4% | remaining activity at 10 µM (Haspin): 85.7% | remaining activity at 10 µM (LATS2): 45.3% | remaining activity at 10 µM (TAK1): 102% | remaining activity at 10 µM (BRK): 81.2% | remaining activity at 10 µM (BRSK1): 116% | remaining activity at 10 µM (IR): 104%
